Source: patent US20200087258A1, “INHIBITOR OF CITRATE TRANSPORTER AND THEIR USE IN THERAPY” (Eternygen GmbH, priority 2017, published 2020)

Target: T1, GLUT1 (Homo sapiens, UniProt P11166)
T1 construct: Huh-7 cells which endogenously express GLUT1; endogenous in cells; host or cells: Huh-7
T1 sequence (P11166 1-492): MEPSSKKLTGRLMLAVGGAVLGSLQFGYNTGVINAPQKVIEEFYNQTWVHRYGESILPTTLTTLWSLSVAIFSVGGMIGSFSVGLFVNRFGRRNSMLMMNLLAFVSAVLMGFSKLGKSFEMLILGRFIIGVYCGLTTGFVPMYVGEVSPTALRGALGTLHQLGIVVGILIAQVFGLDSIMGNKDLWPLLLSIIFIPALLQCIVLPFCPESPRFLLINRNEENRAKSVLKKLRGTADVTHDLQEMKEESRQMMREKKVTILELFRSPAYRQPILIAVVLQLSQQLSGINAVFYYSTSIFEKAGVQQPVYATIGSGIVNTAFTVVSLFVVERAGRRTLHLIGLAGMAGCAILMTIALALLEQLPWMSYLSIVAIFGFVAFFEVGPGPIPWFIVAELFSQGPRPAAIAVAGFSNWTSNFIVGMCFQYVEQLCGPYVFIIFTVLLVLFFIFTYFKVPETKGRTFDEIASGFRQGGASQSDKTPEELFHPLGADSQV
Test: 3H-glucose uptake counter assay in Huh7 cells endogenously expressing GLUT1
Format: cell-based
Conditions: endogenous GLUT1
Description: The compound was obtained by screening of a library containing more than 50,000 lead-like compounds and fragments. The library was tested using a functional citrate uptake assay with HEK293 cells overexpressing recombinant human INDY. The following hit confirmation was conducted in the same assay system. To confirm the activity of selected compounds on the target INDY another cell assay was conducted. In this assay system citrate uptake was measured using HepG2 cells which endogenously express INDY. Furthermore selectivity of selected compounds was tested for two other transporters in different assay systems. The first transporter was the glutamate transporter GLT-1 tested in a glutamate uptake assays using HEK293 cells overexpressing recombinant human GLT-1. The second transporter was the glucose transporter GLUT1 tested in a glucose uptake assay using Huh-7 cells which endogenously express GLUT1. Compounds were considered to be selective with an at least 5-fold higher activity for INDY than for the other two transporters.
Cells were maintained in cell medium using cell culture grade flasks (CellSTACK Corning, 500 cm2 dishes or T175 depending on cell number). The selection antibiotic and G418 (800 μg/ml) was added during cultivation but not for seeding into assay plates. For splitting, cells were washed with PBS (w/o Ca2+, Mg2+, phenol red) and detached with Trypsin/EDTA. Throughout cultivation cells were kept sub-confluent. Detached cells (50,000 cells/well) were seeded in 96-well plates (white, clear bottom from Corning #655098) and incubated over night before usage in the assay. The following media were used. For HEK293 cells expressing INDY MEM (PAA)+10% FCS+1×P/S+2 mM L-Gln; for HEK293 cells expressing GLT-1 DMEM (Gibco)+10% FCS+400 µg/ml G418; for Huh7 cells DMEM (Gibco)+10% FCS+2 mM L-Gin (+1×P/S); for HepG2 cells MEM (PAA, Cat # E15-024)+10% FCS+2 mM L-Gin+1×NEAA+1 mM Na-Pyruvat […]
Glucose uptake in Huh7 cells was measured as a counter assay. […] After 20 min incubation at RT plates were measured using TopCount system, Perkin Elmer. […]

IC50: > 50 µM
SMILES: O=C(NCc1ccccc1F)C1CCN(S(=O)(=O)/C=C/c2ccccc2)CC1 [Example 5]
